SMILES strings stand for the structures.

The conditions of data set [1]: healthy tissues and tumor; cited from earlier work.
For data set [2], the system named is human ovarian carcinoma cells. The experiment in a line: Apoptosis and BCL-2 expression after DOX (cell death ELISA, RT-PCR). The data set is classed as cell-based. The text has this: (§1) It has been shown that prolonged exposure or high concentrations of anticancer drugs leads to the development of drug resistance (Minko, et al. (2001) Dis. Manag. Clin. Outcomes 3:48-54; Minko, et al. (1999) J. Controlled Rel. 59:133-148; Pakunlu (2003) Pharm. Res. 20:351-359; Minko, et al. (1999) Pharm. Res. 16:986-996; Minko, et al. (2001) J. Control. Rel. 71:227-237). To analyze antiapoptotic resistance, the degree of apoptosis to doxorubicin (DOX), a traditional, well-established anticancer drug, was determined. The enrichment of cell lysate and media by mono- and oligonucleosomes was measured using a cell death detection ELISA kit. The expression of genes was measured by reverse transcription PCR (RT-PCR) using β2-microglobulin (β2-m) as an internal standard. […] Similar results were obtained after repeated incubation of human ovarian carcinoma cells with low doses of DOX (Minko, et al. (1999) supra; Minko, et al. (1999) supra) and after treatment of mice xenografts of ovarian carcinoma cells with DOX. […] Thus, suppression of this antiapoptotic cellular defense mechanism is desirable.

The test system of data set [3] is xenografts of ovarian carcinoma cells. The experiment in a line: DOX treatment of mice xenografts of ovarian carcinoma cells. The data set is classed as in vivo. Conditions: up to 25 days of treatment.
Source text: as §1

The test system of data set [4] is human ovarian carcinoma cells. The experiment in a line: Cytotoxicity (IC50 dose) of Ant, Ant-BH3 peptide and DOX. In kind it is cell-based. The settings on record: Ovarian carcinoma cell; human ovarian carcinoma cells. The method, then: By way of example, the effectiveness of a BH3 peptide ([…] SEQ ID NO:1) to increase cell death by inducing the mitochondrial dysfunction leading to necrosis was measured. BH3 peptide was delivered into human ovarian carcinoma cells by the Antennapedia (Ant) internalization sequence (Arg-Gln-Ile-lys-[…] SEQ ID NO:2). Mitochondrial function was assessed by flow cytometry analysis using the lipophilic cationic fluorescent probe 5,5′,6,6′-tetrachloro-1,1′,3,3′-tetraethylbenzimidazolcarbo-cyanine iodide (JC-1). This probe exists as a monomer, and upon excitation at 490 nm, emits light at 527 nm resulting in green fluorescence. At high mitochondrial transmembrane potential, JC-1 forms multimers, known as J-aggregates, and emits light at 590 nm upon excitation at 490 nm resulting in red fluorescence. Therefore, the red/green fluorescence ratio measured by flow cytometry reflects the number of functioning mitochondria. […] The effect of the Ant-BH3 peptide on mitochondrial transmembrane potential was also determined.
Cytotoxicity. The cytotoxicity of drugs were assessed using a modified MTT (3-(4,5-dimethylthiazol-2-yl)-2,5-diphenyltetrazolium bromide) assay (Kunath, et al. (2000) Eur. J. Pharm. Biopharm 49:11-15; Minko, et al. (1998) J. Controlled Rel. 54:223-233; Minko, et al. (1999) J. Controlled Rel. 59:133-148; Minko, et al. (2002) Cancer Chemother. Pharmacol. 50:143-150). […]

The IC50 is the concentration needed to halve the response being measured. In the case of `COc1cccc2c1C(=O)c1c(O)c3c(c(O)c1C2=O)C[C@@](O)(C(=O)CO)C[C@@H]3O[C@H]1C[C@H](N)[C@H](O)[C@H](C)O1` [DOX, doxorubicin], the tissue accumulation result in data set [1] is “significant amount of free DOX accumulation in healthy tissues”. Moreover, the cell response result is “overexpressed the BCL-2 gene and developed resistance to apoptosis” in data set [2] (cells that survived exposure to high DOX concentrations); “responded to the treatment by apoptosis” in data set [2] (low DOX concentrations). Further, in data set [3], the tumor size result was “decreased the tumor size”. The half-inhibitory concentration (IC50) in data set [4] stood at 484 ± 36.4 nM.

The values are drawn from US8124051B2, “Complex drug delivery composition and method for treating cancer” (priority 2003, dated 2012).
